The text below walks through data of patent US20240050428A1 (Cullgen (Shanghai), Inc., priority 2020, published 2024).

The test system of assay [1] is MV4;11 cells. The assay can be described thus: Cell viability assay (CellTiter-Glo) in MV4;11 cells, alone or with gilteritinib. It is filed as cell-based. Conditions: Homo sapiens, MV4-11, 72 h, MV4;11 cells, three days, CellTiter-Glo, read-out: MV4. (In general: In ATP-based viability assays light output follows the ATP content of the culture.)
Assay [2] has as its system MOLM-13 cells. The experiment in a line: Cell viability assay (CellTiter-Glo) in MOLM-13 cells, alone or with gilteritinib. It counts as cell-based. Conditions: Homo sapiens, MOLM-13, 72 h, MOLM-13 cells, three days, CellTiter-Glo.
The mark [3] stands for this setting: compound alone (without gilteritinib), 11 IC50.
Where [4] appears, read: with gilteritinib 10 nM, 11 IC50 gilteritinib.
Setting [5] is: compound alone (without gilteritinib), read-out: MOLM-13 IC50.
Setting [6] is: with gilteritinib 20 nM, read-out: MOLM-13 IC50 gilteritinib.

Structures are written as SMILES. Like-named read-outs stand apart in the source and are kept apart here.

For `O=C1CCC(N2Cc3ccc(CCCC(=O)N4CCC(n5cc(-c6cnc7ccccc7n6)cn5)CC4)cc3C2=O)C(=O)N1` (centres unmarked) [GS-158, 3-(1-Oxo-6-(4-oxo-4-(4-(4-(quinoxalin-2-yl)-1H-pyrazol-1-yl)piperidin-1-yl)butyl)isoindolin-2-yl)piperidine-2,6-dione], the IC50 in assay [1] (setting [3]), in assay [1] (setting [4]), in assay [2] (setting [5]) and in assay [2] (setting [6]) was above 1000 nM each time.
In the case of `O=C1CCC(N2Cc3ccc(CCCC(=O)N4CCC(n5cc(-c6ccc7ccccc7n6)cn5)CC4)cc3C2=O)C(=O)N1` (centres unmarked) [GS-159, 3-(1-Oxo-6-(4-oxo-4-(4-(4-(quinolin-2-yl)-1H-pyrazol-1-yl)piperidin-1-yl)butyl)isoindolin-2-yl)piperidine-2,6-dione], the IC50 in assay [1] (setting [3]), in assay [1] (setting [4]), in assay [2] (setting [5]) and in assay [2] (setting [6]) was above 1000 nM in each case.
In the case of `O=C1CCC(N2Cc3ccc(CCCCC(=O)N4CCC(n5cc(-c6ccc7ccccc7n6)cn5)CC4)cc3C2=O)C(=O)N1` (centres unmarked) [GS-160, 3-(1-Oxo-6-(5-oxo-5-(4-(4-(quinolin-2-yl)-1H-pyrazol-1-yl)piperidin-1-yl)pentyl)isoindolin-2-yl)piperidine-2,6-dione], the IC50 in assay [1] (setting [3]) is 100 to 1000 nM; in assay [1] (setting [4]), 10 to 100 nM; in assay [2] (setting [5]) it was above 1000 nM; in assay [2] (setting [6]), 10 to 100 nM.
As to `O=C1CCC(N2Cc3ccc(CCCCC(=O)N4CCC(n5cc(-c6cnc7ccccc7n6)cn5)CC4)cc3C2=O)C(=O)N1` (centres unmarked) [GS-161, 3-(1-Oxo-6-(5-oxo-5-(4-(4-(quinoxalin-2-yl)-1H-pyrazol-1-yl)piperidin-1-yl)pentyl)isoindolin-2-yl)piperidine-2,6-dione], the IC50 is 100 to 1000 nM in assay [1] (setting [3]), 10 to 100 nM in assay [1] (setting [4]), above 1000 nM in assay [2] (setting [5]) and 10 to 100 nM in assay [2] (setting [6]).
As to `O=C1CCC(N2Cc3cc(NCc4cccc(N5CCC(n6cc(-c7cnc8ccccc8n7)cn6)CC5)c4)ccc3C2=O)C(=O)N1` (centres unmarked) [GS-162, 3-(1-Oxo-5-((3-(4-(4-(quinoxalin-2-yl)-1H-pyrazol-1-yl)piperidin-1-yl)benzyl)amino)isoindolin-2-yl)piperidine-2,6-dione], the IC50 in assay [1] (setting [3]) was above 1000 nM; in assay [1] (setting [4]), above 1000 nM; in assay [2] (setting [5]), above 1000 nM; in assay [2] (setting [6]), 10 to 100 nM.
For the molecule `N#Cc1ccc2ncc(-c3cnn(CCCCCCNc4ccc5c(c4)C(=O)N(C4CCC(=O)NC4=O)C5=O)c3)nc2c1` (centres unmarked) [GS-163, 3-(1-(6-((2-(2,6-Dioxopiperidin-3-yl)-1,3-dioxoisoindolin-5-yl)amino)hexyl)-1H-pyrazol-4-yl)quinoxaline-6-carbonitrile], the IC50 is 100 to 1000 nM in assay [1] (setting [3]), 10 to 100 nM in assay [1] (setting [4]), 100 to 1000 nM in assay [2] (setting [5]) and below 10 nM in assay [2] (setting [6]).
Regarding `O=C1CCC(N2C(=O)c3ccc(NCCCC4CC(n5cc(-c6cnc7cccc(F)c7n6)cn5)C4)cc3C2=O)C(=O)N1` (centres unmarked) [GS-164, 2-(2,6-Dioxopiperidin-3-yl)-5-((3-(3-(4-(8-fluoroquinoxalin-2-yl)-1H-pyrazol-1-yl)cyclobutyl)propyl)amino)isoindoline-1,3-dione], the IC50 lay within 100 to 1000 nM in assay [1] (setting [3]), 10 to 100 nM in assay [1] (setting [4]), 100 to 1000 nM in assay [2] (setting [5]) and 10 to 100 nM in assay [2] (setting [6]).
Turning to `N#Cc1cccc2ncc(-c3cnn(CCCCCCNc4ccc5c(c4)C(=O)N(C4CCC(=O)NC4=O)C5=O)c3)nc12` (centres unmarked) [GS-165, 3-(1-(6-((2-(2,6-Dioxopiperidin-3-yl)-1,3-dioxoisoindolin-5-yl)amino)hexyl)-1H-pyrazol-4-yl)quinoxaline-5-carbonitrile], the IC50 in assay [1] (setting [3]) was 100 to 1000 nM; in assay [1] (setting [4]), 10 to 100 nM; in assay [2] (setting [5]), 100 to 1000 nM; in assay [2] (setting [6]), 10 to 100 nM.
